Reference: the supplement of paper PMC4862054

Columns and labels:
Details in all cases: incubation time: 72 h
BT-474 [1] = assay: normalised response (% of control), CellTiter-Glo; higher = more viable cells (100 = DMSO, 0 = benzethonium chloride kill control)
Procedure, shortened: (§1)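 Normalised signals at single concentrations make up the values. They come from breast cancer cell lines seeded (20 µl suspension) into 384-well plates with compound at 5 concentrations in 10-fold steps over a compound-specific 10,000-fold range, incubated 72 h, and read for CellTox Green fluorescence then CellTiter-Glo luminescence. Each plate was normalised to 0.1 % DMSO (100) and a positive kill control (0).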

MDA-MB-468 [2] = assay: as above
Procedure, shortened: as §1

MCF-10A [3] = assay: as above
Procedure, shortened: as §1

BT-549 [4] = assay: as above
Procedure, shortened: as §1

SK-BR-3 = assay: as above
Procedure, shortened: as §1

HDQ-P1 [5] = assay: normalised viability (% of control), CellTiter-Blue; higher = more viable cells (about 100 = DMSO control)
Procedure, shortened: (§2)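 Seeded at 20 µl suspension per well onto compound-loaded 384-well plates, breast cancer cell lines were incubated 72 h. CellTiter-Blue fluorescence at 560/590 nm was then read, with each plate normalised to vehicle (100) and a positive kill control (0). Normalised viability is reported at a single listed concentration of the series.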

MDA-MB-453 [6] = assay: as above
Procedure, shortened: as §2

DU-4475 [7] = assay: as above
Procedure, shortened: as §2

CAL-51 [8] = assay: as above
Procedure, shortened: as §2

CAL-85-1 [9] = assay: as above
Procedure, shortened: as §2

CAL-148 [10] = assay: as above
Procedure, shortened: as §2

HDQ-P1 [11] = assay: normalised response (% of control), CellTox Green; higher = less cell death (100 = DMSO, 0 = benzethonium chloride kill control)
Procedure, shortened: as §1

MDA-MB-453 [12] = assay: as above
Procedure, shortened: as §1

DU-4475 [13] = assay: as above
Procedure, shortened: as §1

MDA-MB-231 = assay: as above
Procedure, shortened: as §1

MDA-MB-436 = assay: as above
Procedure, shortened: as §1

BT-474 [14] = assay: as above
Procedure, shortened: as §1

CAL-51 [15] = assay: as above
Procedure, shortened: as §1

CAL-85-1 [16] = assay: as above
Procedure, shortened: as §1

HCC1599 = assay: as above
Procedure, shortened: as §1

HCC1937 = assay: as above
Procedure, shortened: as §1

MDA-MB-468 [17] = assay: as above
Procedure, shortened: as §1

CAL-120 = assay: as above
Procedure, shortened: as §1

Hs578T = assay: as above
Procedure, shortened: as §1

MCF-10A [18] = assay: as above
Procedure, shortened: as §1

BT-549 [19] = assay: as above
Procedure, shortened: as §1

CAL-148 [20] = assay: as above
Procedure, shortened: as §1

HCC1143 = assay: as above
Procedure, shortened: as §1

MFM-223 = assay: as above
Procedure, shortened: as §1

| SMILES | normalised response (BT-474 [1]) [%] | normalised response (MDA-MB-468 [2]) [%] | normalised response (MCF-10A [3]) [%] | normalised response (BT-549 [4]) [%] | normalised response (SK-BR-3) [%] | normalised viability (HDQ-P1 [5]) [%] | normalised viability (MDA-MB-453 [6]) [%] | normalised viability (DU-4475 [7]) [%] | normalised viability (CAL-51 [8]) [%] | normalised viability (CAL-85-1 [9]) [%] | normalised viability (CAL-148 [10]) [%] | normalised response (HDQ-P1 [11]) [%] | normalised response (MDA-MB-453 [12]) [%] | normalised response (DU-4475 [13]) [%] | normalised response (MDA-MB-231) [%] | normalised response (MDA-MB-436) [%] | normalised response (BT-474 [14]) [%] | normalised response (CAL-51 [15]) [%] | normalised response (CAL-85-1 [16]) [%] | normalised response (HCC1599) [%] | normalised response (HCC1937) [%] | normalised response (MDA-MB-468 [17]) [%] | normalised response (CAL-120) [%] | normalised response (Hs578T) [%] | normalised response (MCF-10A [18]) [%] | normalised response (BT-549 [19]) [%] | normalised response (CAL-148 [20]) [%] | normalised response (HCC1143) [%] | normalised response (MFM-223) [%] |
| --- | --- | --- | --- | --- | --- | --- | --- | --- | --- | --- | --- | --- | --- | --- | --- | --- | --- | --- | --- | --- | --- | --- | --- | --- | --- | --- | --- | --- | --- |
| NC1(c2ccc(-c3nc4ccn5c(=O)[nH]nc5c4cc3-c3ccccc3)cc2)CCC1 [MK-2206] (1000 nM) | 95.4 | 83 | 83.3 | 69.3 | 52.1 | 86.4 | 11 | 53.5 | 45.3 | 58.4 | 36.8 | 109 | 96.7 | 109 | 106 | 112 | 99.2 | 98.1 | 69 | 117 | 108 | 147 | 97.8 | 82.1 | 104 | 122 | 11.1 | 131 | 95.9 |
| O=C(c1cc(Cc2n[nH]c(=O)c3ccccc23)ccc1F)N1CCN(C(=O)C2CC2)CC1 [Olaparib] (10000 nM) | 67.5 | 69.5 | 92.8 | 78.1 | 78.7 | 96.5 | 78.1 | 71.7 | 39.3 | 80.7 | 56.1 |  | 109 | 98.5 | 35.9 | 44 | 96.4 | 44.8 | 105 | 99.2 | 99.8 | 112 | 94.8 | 96.5 | 94.8 | 102 | 75.3 | 94.2 | 102 |
| C[C@@H](C(=O)O)c1ccc(-c2ccccc2)c(F)c1 [Tarenflurbil] (10000 nM) | 95.2 | 91.5 | 99.4 | 99 | 93.3 | 129 | 84 | 95.1 | 111 | 91.4 | 89.9 | 110 | 103 | 101 | 99.9 | 90 | 88.4 | 113 | 110 | 102 | 109 | 153 | 91.1 |  |  | 101 | 101 | 121 | 92.6 |
| COc1cc2c(N3CCN(C(=O)Nc4ccc(OC(C)C)cc4)CC3)ncnc2cc1OCCCN1CCCCC1 [Tandutinib] (1000 nM) | 97.7 | 99.7 | 87 | 102 | 99 | 128 | 92.9 | 58.4 | 58 | 93 | 71.1 | 97.1 | 101 | 98.6 | 99.1 | 86.9 | 100 | 98.5 | 105 | 100 | 93.2 | 120 | 96.2 | 122 | 93.5 | 108 | 93.5 | 114 | 89 |
